Assay results reported in patent US5981559A, “Azole derivative with leukotriene (LTs) antagonizing activity and thromboxane (TX) A2 antagonizing activity” (Yamanouchi Pharmaceutical Co., Ltd., priority 1994, dated 1999).
pIC50: −log10 of the molar value.

Assays:
[1] = test system: ileal contraction by LTD4; experiment: Inhibition of ileal contraction by LTD4 in guinea pig (Test (2)); design: species or system guinea pig (male Hartley); conditions: guinea pig ileum, LTD4 10^-9 M; compound incubation 20 minutes
Experimental: (2) Test Method for the Inhibition of Ileal Contraction by LTD4 in Guinea Pig
A male Hartley guinea pig of 500 to 700 g in body weight was sacrificed by head blow. The ileum was set in a Magnus vessel containing 10 ml of Tyrode solution aerated with a 95% O2 +5% CO2 mixture gas at a tension of 1.0 g. The tension generated by the tissue was isometrically measured using a threton gage transducer. Ileal contraction reaction against LTD4 (10^-9 M) was measured in the absence of the compound and then in the presence of the test compound in varied concentrations. Incubation time of the compound was set to 20 minutes.

[2] = test system: platelet aggregation induced by U-46619 (stable analog of TXA2); experiment: Inhibition of platelet aggregation induced by U-46619 (Test (1)); type: cell-based, guinea pig (male Hartley); conditions: Cavia porcellus; guinea pig PRP, platelet count 500,000/μl; compound added 2 minutes before U-46619
Experimental: (1) Test Method for the Inhibition of Platelet Aggregation Induced by U-46619
Using a plastic syringe containing 1 volume of 3.8% sodium citrate aqueous solution, 9 volumes of blood was collected from the abdominal aorta of a male Hartley guinea pig of about 800 g in body weight. Platelet rich plasma (PRP) was obtained by subjecting the blood to 10 minutes of centrifugation at 270×g, and the remaining blood was further centrifuged at 1,100×g for 10 minutes to give platelet poor plasma (PPP). The PRP was diluted with PPP to control the platelet count to 500,000/μl, and platelet aggregation by a stable analog of TXA2, U-46619 (a chemical name: 9,11-dideoxy-9α,11α-methanoepoxy-prostaglandin F2 α), was measured in accordance with the method of Bone and Cross (Journal of Physiology, vol.168, pp.178-195, 1963).
That is, changes in the light transmittance of PRP by U-46619 (10^-6 […]) was measured using NBS Hematracer. The compound was added 2 minutes before the addition of U-46619, and the IC50 value (50% inhibition concentration) was calculated from the inhibition ratio based on the maximum light transmittance by U-46619.

[3] = test system: LTD4-induced vascular permeability acceleration; experiment: Inhibition of LTD4-induced vascular permeability acceleration by oral administration (Test (4)); type: in vivo, guinea pig (male Hartley); conditions: 10 mg/kg oral, 1 hour before LTD4 (5 ng/site intracutaneous); dimethyl sulfoxide solution (DMSO)
Experimental: (4) Test Method for the Inhibition of LTD4 -Induced Vascular Permeability Acceleration by Oral Administration of Compounds
A male Hartley guinea pig whose dorsal hair had been cut on the day before the test was subjected to intravenous administration of 1% Evans blue aqueous solution (1 ml/animal). Two minutes thereafter, LTD4 (5 ng/site) was administered inside the dorsal skin of the guinea pig, and the guinea pig was sacrificed by decapitation 30 minutes thereafter. The skin where intracutaneous injection of LTD4 was carried out was collected, and the pigment leaked into the skin was extracted. Amount of the leaked pigment was calculated by measuring its absorbance at 620 nm and used as the index of vascular permeability. The test compound was orally administered as a dimethyl sulfoxide solution 1 hour before the intracutaneous administration of LTD4. The results were calculated as the inhibition ratio at the time of the administration of 10 mg/kg of the compound.

[4] = test system: U-46619 induced airway resistance increase; experiment: Inhibition of U-46619 induced airway resistance increase in guinea pig by oral administration (Test (3)); type: in vivo, guinea pig (male Hartley); conditions: 10 mg/kg oral, 1 hour before U-46619 (3 μg/kg i.v.)
Experimental: (3) Test Method for the Inhibition of U-46619 Induced Airway Resistance Increase in Guinea Pig by Oral Administration of Compounds
A male Hartley guinea pig (500 to 800 g) was anesthetized with urethane (1.2 g/kg, i.p.) and fixed on the back to insert a tracheal cannula. Spontaneous respiration was stopped with gallamine (1 mg/kg, i.v.) and artificial respiration was carried out at a rate of 60 strokes/min, volume 1 ml/100 g body weight/cycle. After total jugular intravenous administration of U-46619 (3 μg/kg), the increasing airway resistance was measured by a respiration function measuring apparatus (Model 6, Buxco Electronics Inc.). In this case, test compound was orally administered 1 hour before the administration of U-46619, as a dimethyl sulfoxide solution or as a methyl cellulose suspension.
The results were calculated as the inhibition ratio of airway resistance at the time of the administration of 10 mg/kg of the compound.

[5] = dimethyl sulfoxide solution (DMSO)

Row | SMILES | pIC50 [1] | pIC50 [2] | Test (4) Inhibition ratio [3] | Test (3) Inhibition ratio [4, 5] | Test (3) Inhibition ratio ([4]; methyl cellulose suspension (MC))
1 | O=C(O)COc1ccc(CCCS(=O)(=O)c2ccc(Cl)cc2)cc1NC(=O)c1cccc(OCc2nc(C3CCCCC3)cs2)c1 [Example 29, 4-[3-(4-Chlorophenylsulfonyl)propyl]-2-[3-[(4-cyclohexyl-2-thiazolyl)methoxy]benzoylamino]phenoxyacetic acid] | 9.21 | 6.96 | – | – | –
2 | CC(C)(C)c1csc(COc2cccc(C(=O)Nc3cc(CCCS(=O)(=O)c4ccc(Cl)cc4)ccc3OC(F)C(=O)O)c2)n1 (centres unmarked) [Example 79, 2-[2-[3-[(4-tert-butyl-2-thiazolyl)methoxy]benzoylamino]-4-[3-(4-chlorophenylsulfonyl)propyl]phenoxy]-2-fluoroacetic acid hydrate] | 8.38 | 6.05 | – | – | –
3 | CC(C)(C)c1csc(COc2cccc(C(=O)Nc3cc(CCCS(=O)(=O)c4ccc(Cl)cc4)ccc3OCc3nnn[nH]3)c2)n1 [Example 39, 3-[(4-tert-Butyl-2-thiazolyl)methoxy]-5'-[3-(4-chlorophenylsulfonyl)propyl]-2'-(1H-tetrazol-5-ylmethoxy)benzanilide] | 9.24 | 6.66 | – | – | –
4 | O=C(O)CNC(=O)COc1ccc(CCCS(=O)(=O)c2ccc(Cl)cc2)cc1NC(=O)c1cccc(OCc2nc3ccccc3s2)c1 [Example 106, N-[[2-[3-(2-Benzothiazolylmethoxy)benzoylamino]-4-[3-(4-chlorophenylsulfonyl)propyl]phenoxy]acetyl]glycine] | 9.04 | 5.92 | – | – | –
5 | O=C(O)COc1ccc(CCCS(=O)(=O)c2ccc(Cl)cc2)cc1NC(=O)c1cccc(OCc2ccc3ccccc3n2)c1 [Comparative compound] | – | – | 35% | 27% | 21%
6 | CCOC(=O)COc1ccc(CCCS(=O)(=O)c2ccc(Cl)cc2)cc1NC(=O)c1cccc(OCc2nc(C(C)(C)C)cs2)c1 [Example 6, Ethyl 2-[3-[(4-tert-butyl-2-thiazolyl)methoxy]benzoylamino]-4-[3-(4-chlorophenylsulfonyl)propyl]phenoxyacetate] | 9.09 | 6.35 | – | – | –
7 | CC(C)(C)c1csc(CCc2cccc(C(=O)Nc3cc(CCCS(=O)(=O)c4ccc(Cl)cc4)ccc3OCC(=O)O)c2)n1 [Example 28, 2-[3-[2-(4-tert-Butyl-2-thiazolyl)ethyl]benzoylamino]-4-[3-(4-chlorophenylsulfonyl)propyl]phenoxyacetic acid] | 9.01 | 7.13 | – | – | –
8 | CS(=O)(=O)NC(=O)COc1ccc(CCCS(=O)(=O)c2ccc(Cl)cc2)cc1NC(=O)c1cccc(OCc2nc3ccccc3s2)c1 [Example 107, 2-[2-[3-(2-benzothiazolylmethoxy)benzoylamino]-4-[3-(4-chlorophenylsulfonyl)propyl]phenoxy]-N-(methanesulfonyl)acetamide 0.5 hydrate] | 8.43 | 6.17 | – | – | –
9 | CCOC(=O)COc1ccc(CCCS(=O)(=O)c2ccc(Cl)cc2)cc1NC(=O)c1cccc(OCc2nc(C3CC3)cs2)c1 [Example 15, Ethyl 4-[3-(4-chlorophenylsulfonyl)propyl]-2-[3-[(4-cyclopropyl-2-thiazolyl]methoxy]benzoylamino]phenoxyacetate] | 9.07 | 7.20 | – | – | –
10 | Cc1oc(=O)oc1COC(=O)COc1ccc(CCCS(=O)(=O)c2ccc(Cl)cc2)cc1NC(=O)c1cccc(OCc2nc(C(C)(C)C)cs2)c1 [Example 42, (5-methyl-2-oxo-1,3-dioxol-4-yl)methyl=2-[3-[(4-tert-butyl-2-thiazolyl)methoxy]benzoylamino]-4-[3-(4-chlorophenylsulfonyl)propyl]phenoxyacetic acid] | 9.03 | 6.38 | – | – | –
11 | CC(C)(C)c1csc(CSc2cccc(C(=O)Nc3cc(CCCS(=O)(=O)c4ccc(Cl)cc4)ccc3OCC(=O)O)c2)n1 [Example 27, 2-[3-[(4-tert-Butyl-2-thiazolyl)methylthio]benzoylamino]-4-[3-(4-chlorophenylsulfonyl)propyl]phenoxyacetic acid] | 9.17 | 6.68 | – | – | –

Further lines, with some results ahead:

Row | pIC50 [1] | pIC50 [2] | SMILES | Test (4) Inhibition ratio [3] | Test (3) Inhibition ratio [4, 5] | Test (3) Inhibition ratio ([4]; methyl cellulose suspension (MC))
12 | 9.59 | 6.42 | O=C(Nc1cc(CCCS(=O)(=O)c2ccc(Cl)cc2)ccc1OCc1nnn[nH]1)c1cccc(OCc2nc3ccccc3s2)c1 [Example 111, 3-(2-benzothiazolylmethoxy)-5'-[3-(4-chlorophenylsulfonyl)propyl]-2'-(1H-tetrazol-5-ylmethoxy)benzanilide] | – | – | –
13 | 9.55 | 6.89 | O=C(O)COc1ccc(CCCS(=O)(=O)c2ccc(Cl)cc2)cc1NC(=O)c1cccc(OCc2nc(C3CCC3)cs2)c1 [Example 31, 4-[3-(4-Chlorophenylsulfonyl)propyl]-2-[3-[(4-cyclobutyl-2-thiazolyl)methoxy]benzoylamino]phenoxyacetic acid] | 40% | 72% | –
14 | 9.62 | 6.27 | O=C(Nc1cc(CCCS(=O)(=O)c2ccc(Cl)cc2)ccc1OCc1nnn[nH]1)c1cccc(OCc2nc(C3CCC3)cs2)c1 [Example 74, 5'-[3-(4-Chlorophenylsulfonyl)propyl]-3-[(4-cyclobutyl-2-thiazolyl)methoxy]-2'-(1H-tetrazol-5-ylmethoxy)benzanilide] | – | – | –
15 | 9.27 | 7.10 | O=C(O)COc1ccc(CCCS(=O)(=O)c2ccc(Cl)cc2)cc1NC(=O)c1cccc(OCc2nc(C3CC3)cs2)c1 [Example 26, 4-[3-(4-Chlorophenylsulfonyl)propyl]-2-[3-[(4-cyclopropyl-2-thiazolyl)methoxy]benzoylamino]phenoxyacetic acid] | – | – | –
16 | 9.35 | 7.26 | CC(C)(C)c1csc(COc2cccc(C(=O)Nc3cc(CCCS(=O)(=O)c4ccc(Cl)cc4)ccc3OCC(=O)O)c2)n1 [Example 13, 2-[3-[(4-tert-Butyl-2-thiazolyl)methoxy]benzoylamino]-4-[3-(4-chlorophenylsulfonyl)propyl]phenoxyacetic acid] | – | – | –
